Where a SMILES comes first, the peptide text is derived from it. [ ]: non-standard residue; d: D form.
The compounds below were run on Rat aortic explants (assay: Aortic ring assay (vessel sprouting ex vivo)). Settings: 50 ng/mL co-treatment with SFKLRY-NH2 1 μM; 7 days.
Format: cell-based
Procedure: The method developed by Nicosia and Ottinetti in In Vitro Cell Dev Biol 26 (1990), pp. 119-128 was used with some modifications. Aortas were harvested from 6-week-old Sprague-Dawley rats. After removing the surrounding fibro-adipose tissues, the rings were immersed in Matrigel in wells within culture dishes. The aortic rings were cultured (5% CO2, 37° C.) in serum-free M199 containing SFKLRY-NH2 (SEQ ID NO: 2), S1P, FYSRLK-NH2, or VEGF in the presence or absence of PTX or U73122. On day 7, sprouting from aortic explants was measured.
To address whether SFKLRY-NH2 (SEQ ID NO: 2) plays a role in sprouting of vascular endothelial cells ex vivo, aortic rings were analyzed in the presence of various stimuli including 1 μM SFKLRY-NH2 (SEQ ID NO: 2), 10 ng/mL VEGF, 10 nM S1P, and 10% FBS. […] Rat aortic explants in Matrigel were incubated with M-199 harboring SFKLRY-NH2 (SEQ ID NO: 2) (1 μM), FYSRLK-NH2 (1 μM), S1P (10 nM), VEGF (10 ng/mL), SFKLRY-NH2 (SEQ ID NO: 2) (1 μM) with U73122 (10 μM) or PTX (50 ng/mL), or 10% FBS and photographed after incubation for 7 days. Three independent experiments were then conducted, each in duplicate.

Compound | effect on vessel sprouting promoted by SFKLRY-NH2
Pertussis toxin [PTX] | markedly attenuated

Same assay, conditions: 10 μM co-treatment with SFKLRY-NH2 1 μM; 7 days

Compound | effect on vessel sprouting promoted by SFKLRY-NH2
COc1ccc2c(c1)CC[C@@H]1[C@@H]2CC[C@]2(C)[C@@H](NCCCCCCN3C(=O)C=CC3=O)CC[C@@H]12 [U73122] | markedly attenuated

Each compound was assayed on MS-1 cells (assay: Suppression of SFKLRY-NH2-induced [Ca2+]i increase in MS-1 cells by inhibitors). Settings: 100 ng/mL for 2 h prior to SFKLRY-NH2.
Format: cell-based, murine
Procedure: FIGS. 3A-3B show BAPTA, U73122 and PTX suppressed SFKLRY-NH2-induced [Ca^2+]i increase in MS-1 cells. […] (A) The cells were pre-incubated in DMEM containing 10 μM BAPTA-AM with Fluo-4/AM for 30 min at 37° C. Cells were suspended in Ca^2+-free Locke's solution containing 0.2 mM EGTA and treated with indicated concentrations of SFKLRY-NH2 (SEQ ID NO: 2). The change in fluorescence intensity was determined with excitation at 488 nm and the emission at 520 nm. (B) Cells were preincubated with or without U73122 (10 μM), U73433 (10 μM) for 30 min, and PTX (100 ng/mL) for 2 h with Fura-2, respectively. Fura-2-loaded cells were then suspended in Ca^2+-free Locke's solution and then treated with 1 μM SFKLRY-NH2 (SEQ ID NO: 2). The data are represent means±3 independent experiments each performed in triplicate. *P<0.05.

Compound | effect on peptide-dependent intracellular Ca2+ mobilization
Pertussis toxin [PTX] | remarkably attenuated

Same assay, conditions: 10 μM preloading; Ca2+-free Locke's solution with 0.2 mM EGTA

Compound | effect on peptide-induced [Ca2+]i increase
CC(=O)OCOC(=O)CN(CC(=O)OCOC(C)=O)c1ccccc1OCCOc1ccccc1N(CC(=O)OCOC(C)=O)CC(=O)OCOC(C)=O [BAPTA-AM, 1,2-bis(2-aminophenoxy)ethane-N,N,N′,N′-tetraacetoxymethyl ester] | completely abolished

Same assay, conditions: 10 μM, 30 min preincubation; 1 μM SFKLRY-NH2

Compound | effect on peptide-induced intracellular calcium mobilization
COc1ccc2c(c1)CC[C@@H]1[C@@H]2CC[C@]2(C)[C@@H](NCCCCCCN3C(=O)C=CC3=O)CC[C@@H]12 [U73122] | completely abolished
COc1ccc2c(c1)CC[C@@H]1[C@@H]2CC[C@]2(C)[C@@H](NCCCCCCN3C(=O)CCC3=O)CC[C@@H]12 [U73433] | little inhibitory effect

What follows are compounds tested on MS-1 cells (assay: [Ca2+]i mobilization assay in MS-1 cells). Settings: three experiments, read-out: Mean EC50 (μM), dose-dependent changes in intracellular Ca2+.
Format: cell-based, murine
Procedure: Cells were incubated with 4 μM Fura-2 AM and 250 μM sulfinpyrazone in serum-free DMEM medium at 37° C. for 30 min with continuous stirring. The cells were then washed with Locke's solution (M. Faehling, et al., FASEB J 16 (2002), pp. 1805-1807) and diluted to 2×10^6 cells/mL. 50 μL aliquots of cell suspension were added to each well of a 96-well plate, and the change in fluorescence ratio was determined at dual excitation wavelengths of 340 and 380 nm and emission wavelength of 500 nm following addition of peptides. Plates were read immediately following the addition of peptide pools, resulting in a time delay of approximately 5 s between peptide addition and detection by the FLEXstation (Molecular Devices). Negative and positive controls were run simultaneously with test samples to ensure that all samples were subjected to identical conditions. The calibration of the fluorescence ratio in terms of [Ca^2+]i was performed according to Grynkiewicz et al. J Biol Chem 260 (1985), pp. 3440-3450.
To identify peptides that stimulate intracellular calcium mobilization in murine endothelial cells (MS-1 cells), the inventors screened 114 pools of C-terminally amidated synthetic hexapeptides.

EC50 [µM] | Compound
1.98 | CC[C@H](C)[C@H](NC(=O)[C@H](Cc1ccccc1)NC(=O)[C@@H](N)CO)C(=O)N[C@@H](CC(C)C)C(=O)N[C@@H](CCCNC(=N)N)C(=O)N[C@@H](Cc1c[nH]c2ccccc12)C(N)=O [SEQ ID NO 20, SFILRW-NH2] (H-SFILRW-NH2; N-terminus assumed)
0.97 | CC[C@H](C)[C@H](NC(=O)[C@H](Cc1ccccc1)NC(=O)[C@@H](N)CO)C(=O)N[C@@H](CC(C)C)C(=O)N[C@@H](CCCNC(=N)N)C(=O)N[C@@H](CCCNC(=N)N)C(N)=O [SEQ ID NO 18, SFILRR-NH2] (H-SFILRR-NH2; N-terminus assumed)
2.01 | CC[C@H](C)[C@H](NC(=O)[C@H](Cc1ccccc1)NC(=O)[C@@H](N)CO)C(=O)N[C@@H](CC(C)C)C(=O)N[C@@H](CCCNC(=N)N)C(=O)N[C@@H](Cc1ccccc1)C(N)=O [SEQ ID NO 22, SFILRF-NH2] (H-SFILRF-NH2; N-terminus assumed)
> 10 | CC(C)C[C@H](NC(=O)[C@H](CCCCN)NC(=O)[C@H](Cc1ccccc1)NC(=O)[C@@H](N)CO)C(=O)N[C@@H](CCCNC(=N)N)C(=O)N[C@@H](Cc1ccc(O)cc1)C(=O)O [SEQ ID NO 1, SFKLRY-COOH] (H-SFKLRY-OH; N-terminus assumed)
3.87 | CC(C)C[C@H](NC(=O)[C@H](CCCCN)NC(=O)[C@H](Cc1ccccc1)NC(=O)[C@@H](N)[C@@H](C)O)C(=O)N[C@@H](CCCNC(=N)N)C(=O)N[C@@H](Cc1ccc(O)cc1)C(N)=O [SEQ ID NO 24, TFKLRY-NH2] (H-TFKLRY-NH2; N-terminus assumed)
0.97 | CC(C)C[C@H](NC(=O)[C@H](CCCNC(=N)N)NC(=O)[C@H](Cc1ccccc1)NC(=O)[C@@H](N)CO)C(=O)N[C@@H](CCCNC(=N)N)C(=O)N[C@@H](Cc1ccc(O)cc1)C(N)=O [SEQ ID NO 15, SFRLRY-NH2] (H-SFRLRY-NH2; N-terminus assumed)
> 50 | CC(C)C[C@H](NC(=O)[C@H](CCCCN)NC(=O)[C@H](Cc1ccccc1)NC(=O)[C@@H](N)CO)C(N)=O [SEQ ID NO 13, SFKL-NH2] (H-SFKL-NH2; N-terminus assumed)
3.6 | CC(C)C[C@H](NC(=O)[C@H](CCCCN)NC(=O)[C@H](Cc1ccccc1)NC(=O)[C@@H](N)CO)C(=O)N[C@@H](CCCNC(=N)N)C(=O)N[C@@H](Cc1c[nH]cn1)C(N)=O [SEQ ID NO 23, SFKLRH-NH2] (H-SFKLRH-NH2; N-terminus assumed)
2.66 | CC(C)C[C@H](NC(=O)[C@H](CCCCN)NC(=O)[C@H](Cc1ccccc1)NC(=O)[C@@H](N)CO)C(=O)N[C@@H](CCCNC(=N)N)C(=O)N[C@@H](CCCNC(=N)N)C(N)=O [SEQ ID NO 16, SFKLRR-NH2] (H-SFKLRR-NH2; N-terminus assumed)
3.16 | CC(C)C[C@H](NC(=O)[C@H](CCCCN)NC(=O)[C@H](Cc1ccccc1)NC(=O)[C@@H](N)CO)C(=O)N[C@@H](CCCNC(=N)N)C(=O)N[C@@H](Cc1ccccc1)C(N)=O [SEQ ID NO 21, SFKLRF-NH2] (H-SFKLRF-NH2; N-terminus assumed)
> 100 | CC(C)C[C@H](NC(=O)[C@H](CCCCN)NC(=O)[C@H](Cc1ccccc1)NC(=O)[C@@H](N)CO)C(=O)N[C@H](CCCNC(=N)N)C(=O)N[C@@H](Cc1ccc(O)cc1)C(N)=O [SEQ ID NO 7, SFKLrY-NH2(d-form)] (H-SFKL[dR]Y-NH2; N-terminus assumed)
1.21 | CC(C)C[C@H](NC(=O)[C@H](CCCCN)NC(=O)[C@H](Cc1ccccc1)NC(=O)[C@@H](N)CO)C(=O)N[C@@H](CCCNC(=N)N)C(=O)N[C@@H](Cc1ccc(O)cc1)C(N)=O [SEQ ID NO 2, SFKLRY-NH2] (H-SFKLRY-NH2; N-terminus assumed)
1.14 | CC(C)C[C@H](NC(=O)[C@H](CCCCN)NC(=O)[C@H](Cc1ccccc1)NC(=O)[C@@H](N)CO)C(=O)N[C@@H](CCCNC(=N)N)C(=O)N[C@H](Cc1ccc(O)cc1)C(N)=O [SEQ ID NO 8, SFKLRy-NH2(d-form)] (H-SFKLR[dY]-NH2; N-terminus assumed)
6.19 | CC(C)C[C@H](NC(=O)[C@H](CCCCN)NC(=O)[C@H](Cc1ccccc1)NC(=O)[C@@H](N)CO)C(=O)N[C@@H](CCCNC(=N)N)C(N)=O [SEQ ID NO 12, SFKLR-NH2] (H-SFKLR-NH2; N-terminus assumed)
0.99 | CC[C@H](C)[C@H](NC(=O)[C@H](Cc1ccccc1)NC(=O)[C@@H](N)CO)C(=O)N[C@@H](CC(C)C)C(=O)N[C@@H](CCCNC(=N)N)C(=O)N[C@@H](Cc1ccc(O)cc1)C(N)=O [SEQ ID NO 17, SFILRY-NH2] (H-SFILRY-NH2; N-terminus assumed)
2.37 | CC(C)C[C@H](NC(=O)[C@H](CCCCN)NC(=O)[C@H](Cc1ccccc1)NC(=O)[C@@H](N)CO)C(=O)N[C@@H](CCCNC(=N)N)C(=O)N[C@@H](Cc1c[nH]c2ccccc12)C(N)=O [SEQ ID NO 19, SFKLRW-NH2] (H-SFKLRW-NH2; N-terminus assumed)

Source: patent publication US9925398B2, “Angiogenic peptide” (NOVACELL TECHNOLOGY INC., priority 2008, dated 2018)
